Tests used:
human MetAP2 = target: T1, human MetAP2 (Homo sapiens, UniProt P50579); test: MetAP2 enzymatic screening test (isolated enzyme, Met-Pro-Arg-pNa substrate, absorbance at 405 nm); type: biochemical; conditions: read-out: % inhibition hMETAP2 at 100 nM
T1 construct: made in house; host or cells: Sf9 insect cells (baculovirus)
Description: The compounds according to the invention underwent biochemical studies in order to determine their capacity to inhibit the enzyme methionine-aminopeptidase2 (enzymatic test on isolated enzyme).
MetAP2 Enzymatic Screening Test
For the enzymatic test, human MetAP2 protein was obtained from a culture supernatant of insect cells (sf9) infected with MetAP2 recombinant baculovirus.
Before performing the experiment, dialysis of the MetAP2 supernatant is performed over 24 hours at 4° C. in a buffer (10 mM Hepes, 100 mM KCl, 10% glycerol, pH 7.4) in the presence of EDTA (1 mM) over the first 12 hours.
The dialysis supernatant is recovered and manganese, used as cofactor, is added to a final concentration of 300 μM.
The enzymatic test is a test in two steps.
Consequently, the second step consists in reacting the peptides cleaved in the preceding step with a second peptidase in order to release the chromophore.

HUVEC cells = test: Test of in vitro proliferation of HUVEC cells induced with FGF-2; conditions: Homo sapiens, read-out: HUVEC Proliferation IC50 (M)
Description: Test of In Vitro Proliferation of HUVEC Cells Induced with Fibroblast Growth Factor 2 (FGF-2).
After incubation for 48 hours, the medium is aspirated and replaced with the deprivation medium RPMI1640 mentioned previously. A second stimulation is then performed. The cells are again incubated at 37° C. in the presence of CO2. After incubation for 72 hours, the medium is again aspirated and 100 μl of Cell Titer-GLO™ Luminescent Cell Viability Assay (Promega, G7571) are added over 10 minutes. The amount of ATP present in the cells, measured using a luminometer, is proportional to the number cells per well corresponding to the cell proliferation.

T1 sequence (P50579 whole entry): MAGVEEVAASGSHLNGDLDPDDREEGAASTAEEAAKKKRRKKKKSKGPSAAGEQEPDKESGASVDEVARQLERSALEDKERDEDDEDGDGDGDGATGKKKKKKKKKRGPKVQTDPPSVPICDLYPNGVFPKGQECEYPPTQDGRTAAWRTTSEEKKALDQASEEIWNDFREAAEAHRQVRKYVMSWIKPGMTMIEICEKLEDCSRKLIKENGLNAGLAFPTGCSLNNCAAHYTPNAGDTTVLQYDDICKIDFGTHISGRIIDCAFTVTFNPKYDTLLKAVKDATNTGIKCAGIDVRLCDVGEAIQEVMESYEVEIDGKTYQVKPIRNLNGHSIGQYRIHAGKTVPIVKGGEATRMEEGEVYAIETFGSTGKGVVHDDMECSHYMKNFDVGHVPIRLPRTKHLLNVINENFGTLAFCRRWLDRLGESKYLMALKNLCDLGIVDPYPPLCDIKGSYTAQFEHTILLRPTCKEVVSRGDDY

SMILES | inhibition at 0.1 µM (human MetAP2) [%] | IC50 (HUVEC cells) [M]
Cc1cc(-c2ccc3c4[nH]ncc4c(=O)n(CC(F)(F)F)c3c2)ccn1 [Compound 186, 7-(2-methylpyrid-4-yl)-5-(2,2,2-trifluoroethyl)-1,5-dihydro-4H-pyrazolo[4,3-c]quinolin-4-one] | 43 | 3.6e-07
CCn1c(=O)c2cn[nH]c2c2ccc(-c3ccc(C(C)N(C)C)cc3)cc21 (stereo not shown) [Compound 15, 7-[4-(1-dimethylaminoethyl)phenyl]-5-ethyl-1,5-dihydro-4H-pyrazolo[4,3-c]quinolin-4-one] | 74 | –
CCn1c(=O)c2cn[nH]c2c2ccc(-c3cnc(N4CCN(C)CC4)nc3)cc21 [Compound 31, 5-ethyl-7-[2-(4-methylpiperazin-1-yl)pyrimidin-5-yl]-1,5-dihydro-4H-pyrazolo[4,3-c]quinolin-4-one] | 64 | –
O=c1c2cn[nH]c2c2ccc(-c3ccccc3F)cc2n1CC(F)(F)F [Compound 3, 7-(2-fluorophenyl)-5-(2,2,2-trifluoroethyl)-1,5-dihydro-4H-pyrazolo[4,3-c]quinolin-4-one] | 34 | 6.6e-07

Further lines, with some results ahead:

inhibition at 0.1 µM (human MetAP2) [%] | SMILES | IC50 (HUVEC cells) [M]
38 | O=c1c2cn[nH]c2c2ccc(-c3cccc(F)n3)cc2n1CC(F)(F)F [Compound 163, 7-(6-fluoropyrid-2-yl)-5-(2,2,2-trifluoroethyl)-1,5-dihydro-4H-pyrazolo[4,3-c]quinolin-4-one] | –
40 | O=c1c2cn[nH]c2c2ccc(-c3ccccc3Cn3cncn3)cc2n1CC(F)(F)F [Compound 159, 7-(2-[1,2,4]triazol-1-ylmethylphenyl)-5-(2,2,2-trifluoroethyl)-1,5-dihydro-4H-pyrazolo[4,3-c]quinolin-4-one] | –
43 | CCc1ncncc1-c1ccc2c3[nH]ncc3c(=O)n(CC(F)(F)F)c2c1 [Compound 143, 7-(4-ethylpyrimidin-5-yl)-5-(2,2,2-trifluoroethyl)-1,5-dihydro-4H-pyrazolo[4,3-c]quinolin-4-one] | –
40 | O=c1c2cn[nH]c2c2ccc(-c3cncnc3-c3ccccc3)cc2n1CC(F)(F)F [Compound 160, 7-(4-phenylpyrimidin-5-yl)-5-(2,2,2-trifluoroethyl)-1,5-dihydro-4H-pyrazolo[4,3-c]quinolin-4-one] | –

— US20140235616A1, “PYRAZOLOQUINOLINONE DERIVATIVES, PREPARATION THEREOF AND THERAPEUTIC USE THEREOF” (SANOFI, priority 2011, published 2014)
